# In PubChem BioAssay (NCI):
#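 Dose response: 5 concentrations. Exposure: 48 h. Format: 96-well plates. Endpoint: linear interpolation; highest concentration if not reached. TGI: total growth inhibition.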 Where a SMILES comes first, the peptide text is derived from it. The star is where a group is joined. Cbz = O=C(OCc1ccccc1)*; Boc = CC(C)(C)OC(=O)*; OSu = O=C1CCC(=O)N1O*; Bn = c1ccc(C*)cc1
# Columns and labels:
# Experiment in all cases: NCI-60 cell line screen, 48 h
# ACHN renal = test system: ACHN renal
# NCI-H23 lung = test system: NCI-H23 lung
# RXF 393 renal = test system: RXF 393 renal
# T-47D breast = test system: T-47D breast
# OVCAR-5 ovarian = test system: OVCAR-5 ovarian
# RPMI-8226 leukemia = test system: RPMI-8226 leukemia
# SNB-75 CNS = test system: SNB-75 CNS
# A549 NSCLC = test system: A549 NSCLC
# UACC-257 melanoma = test system: UACC-257 melanoma
# IGROV1 ovarian = test system: IGROV1 ovarian
# HCT-15 colon = test system: HCT-15 colon
# SN12C renal = test system: SN12C renal
# OVCAR-8 ovarian = test system: OVCAR-8 ovarian
# SF-539 CNS = test system: SF-539 CNS
# NCI-H522 lung = test system: NCI-H522 lung
Structure (SMILES),TGI (ACHN renal) [µM],TGI (NCI-H23 lung) [µM],TGI (RXF 393 renal) [µM],TGI (T-47D breast) [µM],TGI (OVCAR-5 ovarian) [µM],TGI (RPMI-8226 leukemia) [µM],TGI (SNB-75 CNS) [µM],TGI (A549 NSCLC) [µM],TGI (UACC-257 melanoma) [µM],TGI (IGROV1 ovarian) [µM],TGI (HCT-15 colon) [µM],TGI (SN12C renal) [µM],TGI (OVCAR-8 ovarian) [µM],TGI (SF-539 CNS) [µM],TGI (NCI-H522 lung) [µM]
c1ccc(-n2nc3ccc4nonc4c3n2)cc1,> 100,> 100,> 100,> 100,> 100,> 100,> 100,> 100,> 100,> 100,> 100,> 100,> 100,> 100,
COc1cc(C2C(C#N)=C(N)OC3=C2CCS(=O)(=O)c2ccc(C)cc23)cc(OC)c1OC (stereo not drawn),> 100,> 100,,> 100,> 100,> 100,> 100,> 100,> 100,> 100,> 100,> 100,> 100,,> 100
CN(N)c1cc(=O)[nH]c(=O)[nH]1,> 100,> 100,,> 100,,> 100,,> 100,> 100,> 100,> 100,> 100,> 100,> 100,> 100
CC1=CC[C@@]2(CO)[C@@H]([C@@H]1C)[C@H]1CC[C@@H]3[C@@]4(C)CC[C@H](O)C(C)(C)[C@@H]4CC[C@@]3(C)[C@]1(C)C[C@@H]2O,91.7,46.4,25.7,75.1,> 100,,,> 100,> 100,82.3,> 100,> 100,55,,42.8
CN(C)S(=O)(=O)/N=C/c1cccc(/C=N/S(=O)(=O)N(C)C)c1,> 100,> 100,,> 100,> 100,> 100,92.8,> 100,> 100,,> 100,> 100,> 100,> 100,
C=C(C)[C@@]1(OC(=O)c2cc([N+](=O)[O-])cc([N+](=O)[O-])c2)C[C@@H]2CCCC[C@@H]21,> 100,> 100,,> 100,> 100,> 100,> 100,> 100,> 100,> 100,> 100,> 100,> 100,> 100,> 100
Nc1cc(N2CCCC2)nc(=O)n1-c1ccccc1,> 100,> 100,,,> 100,> 100,> 100,> 100,> 100,> 100,> 100,> 100,> 100,> 100,> 100
CCOC(=O)[C@@]12C[C@](/C=C/OC)(O[Si](C)(C)C)[C@@]13c1cc(OC)c(OC)cc1CCN3C(=O)C2O (stereo partly drawn),> 100,> 100,> 100,> 100,> 100,> 100,> 100,> 100,> 100,> 100,> 100,> 100,> 100,> 100,
C[n+]1c(-c2ccc(/C=N/NC(=O)C(=O)N/N=C/c3ccc(-c4cn5ccsc5[n+]4C)cc3)cc2)cn2ccsc21,> 100,,,> 100,> 100,> 100,> 100,> 100,> 100,> 100,> 100,> 100,> 100,> 100,> 100
CC(C)(C)OC(=O)NC(Cc1ccc(OCc2ccccc2)cc1)C(=O)NC(CCCCNC(=O)OCc1ccccc1)C(=O)ON1C(=O)CCC1=O (stereo not drawn) (Boc-Tyr(Bn)-Lys(Cbz)-OSu; configuration not given here),42.6,34.4,55.3,,76.7,45.3,54.9,> 100,> 100,33.1,32,32.9,51.9,,
O=c1ccn(C2OC(CO)C(O)C2[Se]c2ccccc2)c(=O)[nH]1 (stereo not drawn),> 100,> 100,,,> 100,,> 100,> 100,14.2,> 100,> 100,> 100,> 100,> 100,> 100
CC(=O)Nc1ccc2[nH]c(-c3cccc(Cl)c3)cc(=O)c2c1,> 100,> 100,,,> 100,> 100,> 100,> 100,> 100,> 100,> 100,> 100,> 100,30,> 100
N#C/C(C(=O)Nc1ccc(Cl)cc1)=C(/N)N1CCCCC1,> 100,> 100,,> 100,> 100,> 100,72.3,> 100,> 100,> 100,> 100,> 100,> 100,> 100,
CC(=O)CSc1c(-c2ccccc2)c(=O)n(-c2ccccc2)c(=S)n1-c1ccccc1,> 100,> 100,,> 100,> 100,> 100,> 100,> 100,> 100,> 100,> 100,> 100,> 100,,> 100
COC(CC1(/C=C/O[Si](C(C)C)(C(C)C)C(C)C)C(=O)N(C)c2ccccc21)OC (stereo not drawn),> 100,> 100,> 100,> 100,> 100,> 100,> 100,> 100,> 100,,> 100,> 100,> 100,,
CC(=O)NC1=C(NCCN(C)C)C(=O)c2ccccc2C1=O,> 50,27.8,> 50,,,,> 50,48.8,16.8,> 50,20.5,27.8,31.6,34.4,23.8
Oc1ccc(N=C2CCC(=C(c3ccccc3)c3ccc(Nc4ccc(O)cc4)cc3)CC2)cc1,> 100,> 100,> 100,,> 100,> 100,,> 100,> 100,,> 100,> 100,> 100,> 100,> 100

Structure (SMILES),TGI (ACHN renal) [µM],TGI (NCI-H23 lung) [µM],TGI (RXF 393 renal) [µM],TGI (T-47D breast) [µM],TGI (OVCAR-5 ovarian) [µM],TGI (RPMI-8226 leukemia) [µM],TGI (SNB-75 CNS) [µM],TGI (A549 NSCLC) [µM],TGI (UACC-257 melanoma) [µM],TGI (IGROV1 ovarian) [µM],TGI (HCT-15 colon) [µM],TGI (SN12C renal) [µM],TGI (OVCAR-8 ovarian) [µM],TGI (SF-539 CNS) [µM],TGI (NCI-H522 lung) [µM]
NC(=S)N/N=C1\NC(=O)/C(=C/c2ccc3c(c2)OCO3)S1,> 100,54.4,52.3,71.2,73.1,,52.6,> 100,76.1,49.4,82.6,> 100,78,> 100,
CC(C)=NNC=N/C(C#N)=C(\N)C#N,> 100,> 100,> 100,,> 100,> 100,> 100,> 100,> 100,> 100,> 100,,> 100,> 100,> 100
Cc1nc2c(=O)n(-c3ccccc3)c3ccccc3c2o1,> 100,> 100,> 100,> 100,> 100,> 100,> 100,> 100,> 100,> 100,> 100,> 100,> 100,> 100,
CC(C)(C)Nc1noc(=O)n1C(C)(C)C,> 100,> 100,> 100,,> 100,> 100,> 100,> 100,> 100,> 100,> 100,> 100,> 100,> 100,> 100
COc1ccc(C(CC(=O)C(C)(C)CN2CCCCC2)SCCS(=O)(=O)O)cc1 (stereo not drawn),> 100,98.7,> 100,,> 100,63.9,91.9,> 100,> 100,> 100,> 100,> 100,> 100,38.8,43.4
COC1=CCC=C(C[C@@H]2NCCc3cc(OC)c(OC)cc32)C1,> 100,> 100,> 100,,> 100,> 100,> 100,> 100,> 100,> 100,> 100,> 100,> 100,> 100,> 100
COc1ccc(/C(O)=C/c2nc3cccnc3nc2/C=C(\O)c2ccc(OC)cc2)cc1,53.5,30.7,,86.1,> 100,> 100,,39.6,> 100,25.4,> 100,42.5,35.6,25.4,
CCc1c(Cc2[nH]c(Cc3[nH]c(C=O)c(C)c3CC)c(CC)c2CC)[nH]c(C=O)c1C,> 100,> 1,> 100,,,> 100,> 100,> 100,> 1,,> 100,> 100,> 100,> 100,> 100
CC1=C/C(=N\O)C(C(O)(C(F)(F)F)C(F)(F)F)C(C)(C)C1 (stereo not drawn),> 10,> 10,,> 10,> 10,,> 10,> 10,> 10,> 10,> 10,> 10,> 10,> 10,> 10
O=C(N=Nc1cccc(Cl)c1)NNc1cccc(Cl)c1,50.8,> 100,,> 100,46.5,56.8,> 100,94.6,54.3,43.3,75.7,35.9,50.1,,42.6
COc1cc(OC)c2nc(C)c3c(c2c1)NCC3,26.2,19.9,18.1,,25.6,,26.6,34.1,15.9,34,25.9,18.9,19,16.4,19.6
CCOC(=O)[C@@]12C3C=CC(CC3)[C@]1(C(=O)c1ccccc1)C(=O)C(=O)N2c1ccccc1 (stereo partly drawn),> 100,> 100,> 100,> 100,> 100,> 100,,> 100,,,> 100,> 100,> 100,> 100,> 100
CC1Oc2c(c(=O)oc3ccccc23)[C@@]1(C)CC1C[C@H](C)C(=O)O1 (stereo partly drawn),65.8,40.9,,> 100,> 100,77.4,> 100,> 100,> 100,> 100,> 100,,> 100,64.2,34.2
O=C(O)c1ccc(NC(NC(=O)C(C(F)(F)F)C(F)(F)F)(C(F)(F)F)C(F)(F)F)cc1,> 100,> 100,> 100,> 100,> 100,> 100,> 100,> 100,> 100,> 100,> 100,> 100,> 100,> 100,
COc1ccc(OCc2ccc3nc(-c4ccccc4)c(Cl)nc3c2)cc1,> 100,67.9,,> 100,> 100,> 100,> 100,> 100,> 100,> 100,> 100,> 100,> 100,42.3,40.5
CC(C)(C)OC(=O)NCCc1cccc2c1oc1c(CCC(=O)O)cccc12,> 100,> 100,> 100,,> 100,> 100,> 100,> 100,> 100,> 100,> 100,> 100,> 100,> 100,> 100
